Assay results from patent publication US20250324971A1, “HERBICIDAL DERIVATIVES” (SYNGENTA CROP PROTECTION AG, priority 2022, published 2025).

What was measured:
Format in all cases: in vivo
Setaria faberi (SETFA) [1] = assay: Pre-Emergence Test (herbicidal, glasshouse pots); settings: evaluated after 13 days, five-point scale
[2] = tested on: Ipomoea hederacea (IPOHE); assay: Pre-Emergence Test (herbicidal, glasshouse pots); settings: evaluated after 13 days, five-point scale
[3] = tested on: Echinochloa crus-galli (ECHCG); assay: Pre-Emergence Test (herbicidal, glasshouse pots); settings: evaluated after 13 days, five-point scale
[4] = tested on: Amaranthus retoflexus (AMARE); assay: Pre-Emergence Test (herbicidal, glasshouse pots); settings: evaluated after 13 days, five-point scale
Zea mays (ZEAMX) [5] = assay: Pre-Emergence Test (herbicidal, glasshouse pots); settings: evaluated after 13 days, five-point scale
[6] = tested on: Amaranthus palmeri (AMAPA); assay: Pre-Emergence Test (herbicidal, glasshouse pots); settings: evaluated after 13 days, five-point scale
[7] = tested on: Amaranthus palmeri (AMAPA); assay: Post-Emergence Test (herbicidal, glasshouse pots); settings: evaluated after 13 days
Procedure: (§1) Seeds of a variety of test species are sown in standard soil in pots (Setaria faberi (SETFA), Ipomoea hederacea (IPOHE), Echinochloa crus-galli (ECHCG), (Amaranthus retoflexus (AMARE), Zea mays (ZEAMX), and Amaranthus palmeri (AMAPA)). After 8 days cultivation under controlled conditions in a glasshouse (at 24° C./16° C., day/night; 14 hours light; 65% humidity), the plants arm sprayed with an aqueous spray solution derived from the formulation of the technical active ingredient in acetone/water (50:50) solution containing 0.5% Tween 20 (polyoxyethylene sorbitan monolaurate, CAS RN 9005-84-5). Rate of application is shown in g/ha in the tables below. The test plants are then grown in a glasshouse under controlled conditions in a glasshouse (at 24° C./16° C., day/night; 14 hours light; 65% humidity) and watered twice daily. After 13 days the test is evaluated for the percentage damage caused to the plant. The biological activities are shown in the following table on a five-point scale (5=81-100%; 4=61-80%; 3=41-60%; 2=21-40%; 1=0-20%; -=not tested).

[8] = tested on: Amaranthus retoflexus (AMARE); assay: Post-Emergence Test (herbicidal, glasshouse pots); settings: evaluated after 13 days
Procedure: as §1

[9] = tested on: Echinochloa crus-galli (ECHCG); assay: Post-Emergence Test (herbicidal, glasshouse pots); settings: evaluated after 13 days
Procedure: as §1

[10] = tested on: Ipomoea hederacea (IPOHE); assay: Post-Emergence Test (herbicidal, glasshouse pots); settings: evaluated after 13 days
Procedure: as §1

Setaria faberi (SETFA) [11] = assay: Post-Emergence Test (herbicidal, glasshouse pots); settings: evaluated after 13 days
Procedure: as §1

Zea mays (ZEAMX) [12] = assay: Post-Emergence Test (herbicidal, glasshouse pots); settings: evaluated after 13 days
Procedure: as §1

CCn1c(Oc2ccc(C(F)(F)F)cc2)cc(=O)c(C(=O)O)c1-c1ccc(Cl)c(Cl)c1 [Compound 27, 2-(3,4-dichlorophenyl)-1-ethyl-4-oxo-6-[4-(trifluoromethyl)phenoxy]pyridine-3-carboxylic acid]
percentage damage caused to the plant, SETFA (Setaria faberi (SETFA) [1]; rate 250 g/ha): 4 (4=61-80%) | percentage damage caused to the plant, IPHOE ([2]; rate 250 g/ha): 0 | percentage damage caused to the plant, ECHCG ([3]; rate 250 g/ha): 1 (1=0-20%) | percentage damage caused to the plant, AMARE ([4]; rate 250 g/ha): 1 (1=0-20%) | percentage damage caused to the plant, ZEAMX (Zea mays (ZEAMX) [5]; rate 250 g/ha): 0 | percentage damage caused to the plant, AMAPA ([6]; rate 250 g/ha): 1 (1=0-20%) | Post-Emergence Test AMAPA percentage damage (five-point scale) ([7]; rate 250 g/ha): 4 (4=61-80%) | Post-Emergence Test AMARE percentage damage (five-point scale) ([8]; rate 250 g/ha): 4 (4=61-80%) | Post-Emergence Test ECHCG percentage damage (five-point scale) ([9]; rate 250 g/ha): 4 (4=61-80%) | Post-Emergence Test IPHOE percentage damage (five-point scale) ([10]; rate 250 g/ha): 4 (4=61-80%) | Post-Emergence Test SETFA percentage damage (five-point scale) (Setaria faberi (SETFA) [11]; rate 250 g/ha): 5 (5=81-100%) | Post-Emergence Test ZEAMX percentage damage (five-point scale) (Zea mays (ZEAMX) [12]; rate 250 g/ha): 2 (2=21-40%)

CCn1c(Oc2ccn(C)n2)cc(=O)c(C(=O)O)c1-c1ccc(Cl)c(Cl)c1 [Compound 37, 2-(3,4-dichlorophenyl)-1-ethyl-6-(1-methylpyrazol-3-yl)oxo-4-oxo-pyridine-3-carboxylic acid]
percentage damage caused to the plant, SETFA (Setaria faberi (SETFA) [1]; rate 62.5 g/ha): 5 (5=81-100%) | percentage damage caused to the plant, IPHOE ([2]; rate 62.5 g/ha): 3 (3=41-60%) | percentage damage caused to the plant, ECHCG ([3]; rate 62.5 g/ha): 4 (4=61-80%) | percentage damage caused to the plant, AMARE ([4]; rate 62.5 g/ha): 2 (2=21-40%) | percentage damage caused to the plant, ZEAMX (Zea mays (ZEAMX) [5]; rate 62.5 g/ha): 3 (3=41-60%) | percentage damage caused to the plant, AMAPA ([6]; rate 62.5 g/ha): 2 (2=21-40%) | Post-Emergence Test AMAPA percentage damage (five-point scale) ([7]; rate 62.5 g/ha): 4 (4=61-80%) | Post-Emergence Test AMARE percentage damage (five-point scale) ([8]; rate 62.5 g/ha): 4 (4=61-80%) | Post-Emergence Test ECHCG percentage damage (five-point scale) ([9]; rate 62.5 g/ha): 4 (4=61-80%) | Post-Emergence Test IPHOE percentage damage (five-point scale) ([10]; rate 62.5 g/ha): 3 (3=41-60%) | Post-Emergence Test SETFA percentage damage (five-point scale) (Setaria faberi (SETFA) [11]; rate 62.5 g/ha): 4 (4=61-80%) | Post-Emergence Test ZEAMX percentage damage (five-point scale) (Zea mays (ZEAMX) [12]; rate 62.5 g/ha): 4 (4=61-80%)

CCn1c(Oc2cccc(Cl)c2Cl)cc(=O)c(C(=O)O)c1-c1ccc(Cl)c(Cl)c1 [Compound 17, 6-(2,3-dichlorophenoxy)-2-(3,4-dichlorophenyl)-1-ethyl-4-oxo-pyridine-3-carboxylic acid]
percentage damage caused to the plant, IPHOE ([2]; rate 1000 g/ha): 0 | percentage damage caused to the plant, ECHCG ([3]; rate 1000 g/ha): 0 | percentage damage caused to the plant, AMARE ([4]; rate 1000 g/ha): 0 | percentage damage caused to the plant, ZEAMX (Zea mays (ZEAMX) [5]; rate 1000 g/ha): 1 (1=0-20%) | percentage damage caused to the plant, AMAPA ([6]; rate 1000 g/ha): 0 | Post-Emergence Test AMAPA percentage damage (five-point scale) ([7]; rate 1000 g/ha): 1 (1=0-20%) | Post-Emergence Test AMARE percentage damage (five-point scale) ([8]; rate 1000 g/ha): 1 (1=0-20%) | Post-Emergence Test ECHCG percentage damage (five-point scale) ([9]; rate 1000 g/ha): 1 (1=0-20%) | Post-Emergence Test IPHOE percentage damage (five-point scale) ([10]; rate 1000 g/ha): 0 | Post-Emergence Test ZEAMX percentage damage (five-point scale) (Zea mays (ZEAMX) [12]; rate 1000 g/ha): 1 (1=0-20%)

CCn1c(Oc2ccc(Cl)cc2OC)cc(=O)c(C(=O)O)c1-c1ccc(Cl)c(Cl)c1 [Compound 26, 6-(4-chloro-2-methoxy-phenoxy)-2-(3,4-dichlorophenyl)-1-ethyl-4-oxo-pyridine-3-carboxylic acid]
percentage damage caused to the plant, IPHOE ([2]; rate 1000 g/ha): 0 | percentage damage caused to the plant, ECHCG ([3]; rate 1000 g/ha): 0 | percentage damage caused to the plant, AMARE ([4]; rate 1000 g/ha): 1 (1=0-20%) | percentage damage caused to the plant, ZEAMX (Zea mays (ZEAMX) [5]; rate 1000 g/ha): 0 | percentage damage caused to the plant, AMAPA ([6]; rate 1000 g/ha): 1 (1=0-20%) | Post-Emergence Test AMAPA percentage damage (five-point scale) ([7]; rate 1000 g/ha): 1 (1=0-20%) | Post-Emergence Test AMARE percentage damage (five-point scale) ([8]; rate 1000 g/ha): 1 (1=0-20%) | Post-Emergence Test ECHCG percentage damage (five-point scale) ([9]; rate 1000 g/ha): 0 | Post-Emergence Test IPHOE percentage damage (five-point scale) ([10]; rate 1000 g/ha): 1 (1=0-20%) | Post-Emergence Test ZEAMX percentage damage (five-point scale) (Zea mays (ZEAMX) [12]; rate 1000 g/ha): 1 (1=0-20%)

CCn1c(Oc2ccc(OC)cc2)cc(=O)c(C(=O)O)c1-c1ccc(Cl)c(Cl)c1 [Compound 11, 2-(3,4-dichlorophenyl)-1-ethyl-6-(4-methoxyphenoxy)-4-oxo-pyridine-3-carboxylic acid]
percentage damage caused to the plant, IPHOE ([2]; rate 1000 g/ha): 5 (5=81-100%) | percentage damage caused to the plant, ECHCG ([3]; rate 1000 g/ha): 0 | percentage damage caused to the plant, AMARE ([4]; rate 1000 g/ha): 2 (2=21-40%) | percentage damage caused to the plant, ZEAMX (Zea mays (ZEAMX) [5]; rate 1000 g/ha): 1 (1=0-20%) | percentage damage caused to the plant, AMAPA ([6]; rate 1000 g/ha): 1 (1=0-20%) | Post-Emergence Test AMAPA percentage damage (five-point scale) ([7]; rate 1000 g/ha): 5 (5=81-100%) | Post-Emergence Test AMARE percentage damage (five-point scale) ([8]; rate 1000 g/ha): 5 (5=81-100%) | Post-Emergence Test ECHCG percentage damage (five-point scale) ([9]; rate 1000 g/ha): 1 (1=0-20%) | Post-Emergence Test IPHOE percentage damage (five-point scale) ([10]; rate 1000 g/ha): 3 (3=41-60%) | Post-Emergence Test ZEAMX percentage damage (five-point scale) (Zea mays (ZEAMX) [12]; rate 1000 g/ha): 2 (2=21-40%)
